For one series, the system named is dispersed mouse islets. The experiment in a line: Mitochondrial membrane potential (rhodamine 123). Type of series: cell-based. To be noted: 200 μM. The method, then:
Dispersed isolated islets were treated with either vehicle control or 200 μM CMPF for 24 hours prior to loading with rhodamine 123 (25 ug/ml, 10 min) in 2.8 mM glucose imaging buffer. 5 mM NaN3 was added to fully depolarize the MMP (Diao et al., 2008).
Lower total insulin content may be due to beta-cell exhaustion caused by over-stimulation and/or defective insulin production. To determine the mechanism through which CMPF diminishes insulin content, we measured insulin in the media following 24 hr treatment. […] Impaired insulin processing has previously been associated with elevated levels of the mitochondrial protein uncoupling protein 2 (UCP2) (Kashemsant and Chan, 2006). Excess substrate for the electron transport chain leads to the formation of ROS, which can induce UCP2 expression. To first determine if CMPF is metabolized by beta-cells, we measured changes in mitochondrial membrane potential (MMP) in mouse islets acutely treated with CMPF. […] This corresponded to a 2-fold increase in ROS in CMPF-treated islets over controls after 4 and 24 hrs of treatment (FIG. 17c). […] The increase in ROS production caused by CMPF-treatment was inhibited by co-treatment with the antioxidant N-Acetyl-Cysteine (NAC) (FIG. 17f). Importantly, co-treatment with NAC rescued insulin secretion and insulin content to near control levels in CMPF-treated islets (FIG. 17g,h). Therefore, oxidative stress caused by CMPF metabolism impaired GSIS and insulin processing, and is reversible through reducing ROS generation.
Given that CMPF causes hyperinsulinemia during the fed-state in vivo, and exaggerated secretion of insulin from islets under non-stimulatory conditions in vitro, we rationalized that there must be a defect in glucose-sensing and/or secretion of insulin that could not be solely explained by effects on insulin production. […] To confirm changes in mitochondrial function, 24 hr CMPF treated islets were analyzed by microarray. […] When organized based on biological process, the largest differentially expressed cluster encompassed genes involved in metabolism (38%) (FIG. 17c). […]

Series [1] relates to MIN6 cells. The experiment in a line: Annexin V and propidium iodide staining for apoptosis and necrosis. The format is cell-based, murine. Conditions: 20 uM or 200 uM, 4 hrs. How it is done: A) MIN6 cells were treated for 4 hrs with 0 uM (EtOH vehicle control), 20 uM or 200 uM CMPF prior to being loaded with Annexin V and propidium iodide fluorescent dyes, and counterstained with Hoechst dye. […] B) Primary CD1 islets were dispersed and treated with vehicle control (0 CMPF, black), 20 uM CMPF (grey), or 200 uM CMPF (white) for 48 hours, then stained with Annexin V, Propidium Iodide and Hoechst dye. Quantification of double positive staining was assessed by an Arrayscan VTI HCS reader.
Next the mechanism underlying the observed impairment in GSIS following treatment with CMPF was investigated. To determine whether CMPF was inhibiting GSIS by inducing beta cell apoptosis, Annexin V and Propidium Iodide staining was performed in MIN6 cells treated with vehicle (EtOH), 20 uM or 200 uM CMPF for 4 hrs to look for apoptosis and necrosis respectively. […] MIN6 cells treated with 5 mM H2O2 for 3 hrs were used as a positive control (FIG. 4).

The next series has as its target albumin (Homo sapiens, UniProt P02768). To be noted: cited from earlier work.
Another series deals with mice. The experiment in a line: Hyperinsulinemic euglycemic clamps after 7 days of IP injections. The format is in vivo. To be noted: 7 days IP. How it is done:
A) Schematic illustrating injection and surgical timeline. B) Glucose infusion rate (C) glucose appearance and (D) disappearance rates and (E) glycolytic rate in 7 day CMPF-injected mice compared to vehicle controls (N=4/group). […] Values mean±SEM.
Hyperinsulinemic euglycemic clamps were performed as previously described (Liu et al., 2012) following 7 days of IP injections with either CMPF or vehicle. Internal and external cannulation was performed on day 3 of the injection protocol.
As shown in Example 1, elevated plasma CMPF results in glucose intolerance and impaired insulin secretion. […] To more thoroughly examine integrated glucose homeostasis, hyperinsulinemic euglycemic clamps were performed.

In another series the test system is primary murine islets. The experiment in a line: Glucose- and KCl-stimulated insulin secretion in primary murine islets. Type of series: cell-based. Conditions: 200 uM. The method, then:
(§1) LG=2.8 mM glucose, HG=16.7 mM glucose, KCl=16.7 mM glucose+30 mM KCl. *p<0.05.
(§2) Since beta cell failure is a major underlying cause of both GDM and T2D, the effect of increased CMPF on beta cell function was investigated both in vitro and in vivo. Using physiological concentrations of CMPF (20 uM and 200 uM, as observed in our NGT-pregnant and GDM-pregnant samples respectively (FIG. 2)), as well as a vehicle control (EtOH), its effect was studied on glucose-stimulated insulin secretion (GSIS) and insulin secretion in response to direct depolarization using the secretagogue KCl in an immortalized murine beta cell line (MIN6), as well as primary isolated human and murine islets (FIG. 3A). […] Therefore, high physiologically relevant levels of CMPF impair GSIS.

Series [2] deals with islets from injected mice. The experiment in a line: Islets isolated from IP injected mice after the OGTT (ex vivo). Type of series: in vivo. How it is done:
CD1 mice were injected IP with either vehicle control (black) or CMPF (white). Over the 7-day course of IP injections, mice were monitored for body weight (A), and random-fed blood glucose (B) and plasma insulin (C). […] The lower body weights on day 8 are following a 14-hour fast, immediately prior to the OGTTs. Following 7 consecutive days of CMPF injections, mice were fasted for 14 hrs and OGTTs were performed. […] (n=8 per group, p<0.05).
To assess the effect of in vivo administration of CMPF directly on the beta cells, the islets were isolated from the 3-day and 7-day IP injected mice immediately following the OGTT. […] The reduced total insulin content corresponded to lower insulin mRNA levels (FIG. 7D, 3-day injected used as representative), consistent with the in vitro studies described herein.

The subject of series [3] is MIN6 cells. The experiment in a line: Glucose- and KCl-stimulated insulin secretion in MIN6 cells. The format is cell-based, murine. To be noted: 200 uM. The method, then:
as §1, §2

The next series has as its system islets. The experiment in a line: GSIS with CMPF conjugated to fatty acid-free BSA. Type of series: cell-based. Conditions: conjugated for 6 hours prior to addition of islets, N=3. How it is done: CMPF was conjugated to fatty acid free BSA for 6 hours prior to addition of islets for green and blue bars. The same protocol used for the conjugation of oleate was used. Black and white bars indicate addition of CMPF with 0.1% BSA in the media without pre-conjugation. N=3. *P<0.05.

The test system of a further series is primary human islets. The experiment in a line: Glucose-stimulated insulin secretion in primary human islets. Type of series: cell-based. To be noted: 200 uM, 24 hour pre-incubation, vs vehicle and 20 uM. The method, then:
as §1, §2

Chain of albumin (P02768 25-609, species assumed): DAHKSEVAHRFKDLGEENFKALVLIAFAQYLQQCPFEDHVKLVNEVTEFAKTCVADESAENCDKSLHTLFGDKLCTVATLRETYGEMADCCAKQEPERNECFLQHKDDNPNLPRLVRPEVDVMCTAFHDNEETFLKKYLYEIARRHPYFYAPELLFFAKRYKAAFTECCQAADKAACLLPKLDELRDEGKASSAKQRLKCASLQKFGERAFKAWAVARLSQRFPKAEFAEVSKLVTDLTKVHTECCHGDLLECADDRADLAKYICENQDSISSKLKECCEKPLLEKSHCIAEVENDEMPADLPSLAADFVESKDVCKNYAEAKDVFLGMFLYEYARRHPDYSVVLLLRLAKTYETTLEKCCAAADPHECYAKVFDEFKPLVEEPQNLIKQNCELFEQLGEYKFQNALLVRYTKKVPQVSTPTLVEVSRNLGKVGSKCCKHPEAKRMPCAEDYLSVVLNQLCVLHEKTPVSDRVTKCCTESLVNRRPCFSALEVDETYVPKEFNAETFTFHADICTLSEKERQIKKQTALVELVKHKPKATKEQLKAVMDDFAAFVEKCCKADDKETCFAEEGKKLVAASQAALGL

Turning to `CCCc1oc(CCC(=O)O)c(C(=O)O)c1C` [CMPF, 3-carboxy-4-methyl-5-propyl-2-furanpropanoic acid], in the series with dispersed mouse islets (24 hrs), the “MMP hyperpolarization under high glucose” value is “significantly reduced MMP hyperpolarization” and the “MMP hyperpolarization under sub-stimulatory glucose” value is on record as “significantly greater hyperpolarization”. The “mitochondrial membrane potential, acute addition” value in the series with dispersed mouse islets (acute) is given as “transient membrane hyperpolarization”. The “Annexin V and propidium iodide staining (apoptosis, necrosis)” value in the series with MIN6 cells [1] is listed as “No significant staining”. Further, the albumin binding result on albumin was “highly albumin-bound”. Moreover, in the series with mice, the “glucose appearance, basal” value is listed as “significantly lower”; the “glycolytic rate, response to insulin (post clamp/basal)” value is recorded as “no difference”; the insulin appearance post-clamp result is “significantly reduced”. The glucose infusion rate result in the series on mice (N=4/group) is “significant reduction”. Moreover, the GSIS entry in the series with primary murine islets (24 hour pre-incubation, vs vehicle and 20 uM) was “impairs GSIS”. For the same compound, in the series with primary murine islets (CD1 mouse islets, 24 hours), the “glucose- and KCl-stimulated insulin secretion” value is “significantly impaired”. In series [2] (3 days IP), the “GSIS of isolated islets” value is recorded as “impaired GSIS”, the “insulin mRNA of isolated islets” value is “decreased insulin mRNA”, the islet size entry is on record as “no significant difference” and the “total insulin content of isolated islets” value was “decreased total insulin content”. Also, in [2] (7 days IP), the “insulin secretion of isolated islets under high glucose” value was “significantly reduced insulin secretion” and the “insulin secretion of isolated islets under low glucose” value was “significantly increased insulin secretion”. In the series with MIN6 cells [3] (4 hour pre-incubation), the KCl-stimulated insulin secretion result is recorded as “significantly impairs”. The “glucose-stimulated insulin secretion (GSIS)” value in the series on MIN6 cells [3] (4 hour pre-treatment, vs 20 uM and vehicle) was “significantly impaired”. Further, the “effect of conjugation to fatty acid-free BSA on CMPF-impaired GSIS” value in the series on islets is “no effect”. In the series with primary human islets, the GSIS entry was “impairs GSIS”.

The values are drawn from US9726659B2, “CMPF as a biomarker for diabetes and associated methods” (The Governing Council of the University of Toronto, priority 2012, dated 2017).
